Test results as given in ChEMBL document CHEMBL4665622, “Repurposing ibuprofen to control Staphylococcus aureus biofilms” (2019).
In brackets after ≈: the same amount, converted by molar mass.

Columns and labels:
[1] = test system: Cell membrane; test: Effect on surface tension of Staphylococcus aureus CECT 976 assessed as electron acceptor component at MIC incubated for 1 hr (reference value: 0.5 +/- 0.1 mJ/m2); assay type: subcellular
[2] = test system: Staphylococcus aureus; test: Antibacterial activity against Staphylococcus aureus XU212 assessed as reduction in bacterial growth incubated for 24 hrs by broth microdilution method; assay type: functional
[3] = test system: Staphylococcus aureus; test: Inhibition of cell adhesion in Staphylococcus aureus CECT 976 assessed as decrease in CFU at 5 times of MIC incubated upto 24 hrs relative to control; assay type: functional; details: time hrs <=24
[4] = test system: Staphylococcus aureus; test: Antibacterial activity against Staphylococcus aureus RN4220 assessed as reduction in bacterial growth incubated for 24 hrs by broth microdilution method; assay type: functional
[5] = test system: Cell membrane; test: Effect on surface tension of Staphylococcus aureus CECT 976 assessed as electron donor component at MIC incubated for 1 hr (reference value: 55 +/- 0.9 mJ/m2); assay type: subcellular
[6] = test system: Staphylococcus aureus; test: Inhibition of cell adhesion in Staphylococcus aureus CECT 976 assessed as decrease in biomass content incubated upto 24 hrs; assay type: functional, organism-based; details: time hrs <=24
[7] = test system: Cell membrane; test: Effect on surface tension of Staphylococcus aureus CECT 976 assessed as Lewis acid-base at MIC incubated for 1 hr (reference value: 10.5 +/- 1.3 mJ/m2); assay type: subcellular
[8] = test system: Staphylococcus aureus; test: Bactericidal activity against Staphylococcus aureus XU212 assessed as reduction in bacterial growth incubated for 24 hrs by broth microdilution method; assay type: functional
[9] = test system: Staphylococcus aureus; test: Antibiofilm activity against Staphylococcus aureus RN4220 preform-matured biofilm assessed as reduction in CFU per cm2 at 5 times of MIC incubated upto 24 hrs; assay type: functional; details: time hrs <=24
[10] = test system: Staphylococcus aureus; test: Antibiofilm activity against Staphylococcus aureus CECT 976 preform-matured biofilm assessed as increase in biofilm inactivation at upto 10 times of MIC incubated upto 24 hrs relative to control; assay type: functional; details: time hrs <=24
[11] = test system: Cell membrane; test: Effect on surface tension of Staphylococcus aureus CECT 976 assessed as Lewis acid-base at 0.5 times of MIC incubated for 1 hr (reference value: 10.5 +/- 1.3 mJ/m2); assay type: subcellular
[12] = test system: Staphylococcus aureus; test: Antibiofilm activity against Staphylococcus aureus XU212 preform-matured biofilm assessed as increase in biofilm removal at MIC incubated upto 24 hrs relative to control; assay type: functional; details: time hrs <=24
[13] = test system: Staphylococcus aureus; test: Antibiofilm activity against Staphylococcus aureus CECT 976 preform-matured biofilm assessed as increase in biofilm removal at upto 10 times of MIC incubated for 24 hrs; assay type: functional, organism-based; details: time 1.0 hrs
[14] = test system: Staphylococcus aureus; test: Antibiofilm activity against Staphylococcus aureus CECT 976 preform-matured biofilm assessed as increase in biofilm removal at 10 times of MIC incubated for 6 hrs relative to control; assay type: functional
[15] = test system: Staphylococcus aureus; test: Antibiofilm activity against Staphylococcus aureus RN4220 preform-matured biofilm assessed as reduction in CFU per cm2 at 10 times of MIC incubated upto 24 hrs; assay type: functional; details: time hrs <=24
[16] = test system: Cell membrane; test: Disruption of cytoplasmic membrane integrity in Staphylococcus aureus CECT 976 assessed as potassium ion release at 0.25 times of MIC incubated for 1 hr by flame emission and atomic absorption spectroscopy (reference value: 0 mg/L); assay type: subcellular
[17] = test system: Cell membrane; test: Destabilization of cytoplasmic membrane integrity in Staphylococcus aureus CECT 976 at 0.25 times of MIC incubated for 1 hr by epifluorescence microscope analysis (reference value: 10.6 %); assay type: subcellular
[18] = test system: Cell membrane; test: Effect on surface tension of Staphylococcus aureus CECT 976 assessed as Lifshitz-van der Waals at 0.5 times of MIC incubated for 1 hr (reference value: 40.5 +/- 0.0 mJ/m2); assay type: subcellular
[19] = test system: Cell membrane; test: Effect on surface tension of Staphylococcus aureus CECT 976 assessed as electron donor component at 0.5 times of MIC incubated for 1 hr (reference value: 55 +/- 0.9 mJ/m2); assay type: subcellular
[20] = test system: Cell membrane; test: Effect on surface tension of Staphylococcus aureus CECT 976 assessed as Lewis acid-base at 0.25 times of MIC incubated for 1 hr (reference value: 10.5 +/- 1.3 mJ/m2); assay type: subcellular
[21] = test system: Cell membrane; test: Effect on surface tension of Staphylococcus aureus CECT 976 assessed as electron acceptor component at 0.25 times of MIC incubated for 1 hr (reference value: 0.5 +/- 0.1 mJ/m2); assay type: subcellular
[22] = test system: Staphylococcus aureus; test: Antibiofilm activity against Staphylococcus aureus SA1199B preform-matured biofilm assessed as reduction in CFU at 5 and 10 times of MIC incubated upto 24 hrs relative to control; assay type: functional; design: scale not given: the % may be the effect or the level left; details: time hrs <=24
[23] = test system: Staphylococcus aureus; test: Inhibition of cell adhesion in Staphylococcus aureus CECT 976 assessed as decrease in biomass content at upto 10 times of MIC incubated upto 24 hrs relative to control; assay type: functional; details: time hrs <=24
[24] = test system: Staphylococcus aureus; test: Antibiofilm activity against Staphylococcus aureus CECT 976 preform-matured biofilm assessed as reduction in CFU per cm2 at MIC incubated for 6 hrs; assay type: functional
[25] = test system: Cell membrane; test: Effect on surface tension of Staphylococcus aureus CECT 976 assessed as Lifshitz-van der Waals at MIC incubated for 1 hr (reference value: 40.5 +/- 0.0 mJ/m2); assay type: subcellular
[26] = test system: Staphylococcus aureus; test: Antibacterial activity against Staphylococcus aureus assessed as reduction in bacterial growth at pH 5 incubated for 24 hrs by broth microdilution method; assay type: functional
[27] = test system: Staphylococcus aureus; test: Antibiofilm activity against Staphylococcus aureus SA1199B preform-matured biofilm assessed as increase in biofilm inactivation upto 10 times of MIC incubated upto 24 hrs relative to control; assay type: functional; details: time hrs <=24
[28] = test system: Staphylococcus aureus; test: Antibiofilm activity against Staphylococcus aureus XU212 preform-matured biofilm assessed as increase in biofilm removal at 5 and 10 times of MIC incubated upto 24 hrs relative to control; assay type: functional; details: time hrs <=24
[29] = test system: Staphylococcus aureus; test: Antibiofilm activity against Staphylococcus aureus RN4220 preform-matured biofilm assessed as increase in biofilm inactivation upto 10 times of MIC incubated upto 24 hrs relative to control; assay type: functional; details: time hrs <=24
[30] = test system: Staphylococcus aureus; test: Antibiofilm activity against Staphylococcus aureus CECT 976 preform-matured biofilm assessed as increase in biofilm removal at 5 times of MIC incubated for 6 hrs relative to control; assay type: functional
[31] = test system: Staphylococcus aureus; test: Antibacterial activity against Staphylococcus aureus assessed as reduction in bacterial growth incubated for 24 hrs by broth microdilution method; assay type: functional

- Activity [1]: 1.7 mJ/m2
- MIC [2]: 1600 µg/mL (≈ 7.76 mM)
- MIC [4]: 2000 µg/mL (≈ 9.7 mM)
- Activity [5]: 50 mJ/m2
- Activity [7]: 12.5 mJ/m2
- Activity [11]: 13.8 mJ/m2
- Activity [16]: 0.51 mg/L
- Activity [17]: 99.1%
- Activity [18]: 37.3 mJ/m2
- Activity [19]: 49.7 mJ/m2
- Activity [20]: 11.7 mJ/m2
- Activity [21]: 0.7 mJ/m2
- Activity [25]: 38 mJ/m2
- MIC [26]: 40 µg/mL (≈ 0.194 mM)
- MIC [31]: 1250 µg/mL (≈ 6.06 mM)
Structure (SMILES): CC(C)Cc1ccc(C(C)C(=O)O)cc1 (stereo unspecified) [IBUPROFEN]
- inhibition (INH) [3]: 100%
- inhibition [6]: Dose-dependent effect
- MBC [8]: 1600 µg/mL (≈ 7.76 mM)
- Activity [9]: 1.8 log10CFU
- inhibition (INH) [10]: <=80%
- Activity [12]: <=14%
- inhibition [13]: Dose-dependent effect
- inhibition (INH) [14]: 39%
- Activity [15]: 2.5 log10CFU
- Activity [22]: 100%
- inhibition (INH) [23]: <=38.5%
- Activity [24]: 0.8 log10CFU
- Activity [27]: <=55%
- Activity [28]: 0%
- Activity [29]: <=55%
- inhibition (INH) [30]: 42%
